Experimental data taken from patent US11680946B1, “Detection of cholinesterase inhibition with microfluidic devices and systems thereof” (priority 2020, dated 2023).
Entries after “also recorded” stand apart in the source; their conditions may differ.

What was measured:
[1] = system: acetylcholinesterase (AChE); experiment: standard Abcam fluorescent AChE assay in a microplate (plate reader); format: biochemical; details: human tears; microtiter plate format
Text: In addition, we performed side-by-side measurements of a series of samples including the human sample matrices and recombinantly expressed AChE with the SpinDx assay and with a traditional assay including a microtiter plate and plate reader (FIG. 7A-7B). The two assay formats show similar trends in the levels of activity, although certain samples (e.g., unkilled CSF) look dramatically higher in SpinDx than in the plate format.

[2] = system: acetylcholinesterase (AChE); experiment: SpinDx pulldown AChE activity assay in human sample matrices with or without inhibition by paraoxon; format: biochemical; details: pooled human tears, acetylthiocholine fluorogenic substrate
Text: For this reason, we developed a SpinDx-based assay to provide information on (non-specific) inhibition of cholinesterase (ChE), such that the SpinDx test at a minimum provides information similar to that which can be obtained with the existing Test-mate ChE test, but in a simpler, more portable format. The term “SpinDx-based assay,” as used herein, refers to a bead-based assay format that employs a centrifugal microfluidic disc for transporting such beads (e.g., as described in FIG. 1A-1B and FIG. 3A-3D).
Our SpinDx assay can include components for a fluorescent analog of the Ellman's assay, loaded within the density medium. Upon spinning the disk, the capture beads, but not the blood sample or erythrocytes, will partition into the density medium. […]
We tested the assay extensively in buffer prior to translating to human bodily fluids, using either heat or paraoxon to inhibit the AChE cholinesterase activity. We determined that, in buffer, our limit of detection (LOD) for AChE with the SpinDx assay was between 0.005 and 0.01 mU/mL, with a limit of quantitation (LOQ) of 0.015 to 0.024 mU/mL, depending on the time of incubation (shorter incubations actually gave lower limits of detection and quantitation, perhaps because the fluorogenic assay inherently has a slow signal generation over time due to spontaneous hydrolysis of the substrate). […]

## CCOP(=O)(OCC)Oc1ccc([N+](=O)[O-])cc1 [paraoxon]
[1]
  reduction (kill) of apparent AChE activity by inhibitor: can't be killed
[2]
  reduction (kill) of cholinesterase activity by inhibitor: could not be reduced; also recorded: can't be killed
